Results on five molecules are retold here after patent US9540314B2, “N-cycloalkyl-N-[(cycloalkenylphenyl)methylene]-(thio) carboxamide derivatives” (BAYER INTELLECTUAL PROPERTY GMBH, priority 2012, dated 2017).

Data set [1] is described as follows: log P by HPLC on a reversed-phase column (C 18), EEC Directive 79/831 Annex V.A8. The format is physicochemical. Conditions: Table 1; HPLC C 18, 40° C., 0.1% aqueous formic acid and acetonitrile; several values = mixture of 2 or more isomers. How it is done:
In table 1, the log P values were determined in accordance with EEC Directive 79/831 Annex V.A8 by HPLC (High Performance Liquid Chromatography) on a reversed-phase column (C 18), using the method described below:
Temperature: 40° C.; Mobile phases: 0.1% aqueous formic acid and acetonitrile; linear gradient from 10% acetonitrile to 90% acetonitrile.
Calibration was carried out using unbranched alkan-2-ones (comprising 3 to 16 carbon atoms) with known log P values (determination of the log P values by the retention times using linear interpolation between two successive alkanones). lambda-max-values were determined using UV-spectra from 200 nm to 400 nm and the peak values of the chromatographic signals.

Data set [2] relates to Sphaerotheca fuliginea. Description: In vivo preventive test on Sphaerotheca fuliginea (powdery mildew on cucurbits). Conditions: 500 ppm, gherkin plants, grading 12 days after contamination. On the procedure: (§1) The active ingredients tested are prepared by homogenization in a mixture of acetone/tween/DMSO and then diluted with water to obtain the desired active material concentration.
Gherkin plants (“Vert petit de Paris” variety), sown in starter cups on a 50/50 peat soil-pozzolana substrate and grown at 24° C., are treated at the Z11 cotyledon stage by spraying with the active ingredient prepared as described above. Plants, used as controls, are treated with the mixture of acetone/tween/DMSO/water not containing the active material.
After 24 hours, the plants are contaminated by spraying the cotyledons with an aqueous suspension of Sphaerotheca fuliginea spores (100 000 spores per mL). The spores are collected from infected plants. The contaminated gherkin plants are incubated at about 20° C. and at 70-80% relative humidity.
(§2) Grading (% of efficacy) is carried out 12 days after the contamination, in comparison with the control plants.
Under these conditions, good (at least 70%) to total protection is observed at a dose of 500 ppm of active ingredient with the following compounds from table A: […]

Data set [3] concerns Alternaria brassicae. Description: In vivo preventive test on Alternaria brassicae (leaf spot on radish). The note with it: radish plants. On the procedure:
(§3) The active ingredients tested are prepared by homogenization in a mixture of acetone/tween/DMSO, and then diluted with water to obtain the desired active material concentration.
Radish plants (“Pernod Clair” variety), sown in starter cups on a 50/50 peat soil pozzolana substrate and grown at 17° C., are treated at the cotyledon stage by spraying with the active ingredient prepared as described above. Plants, used as controls, are treated with the mixture of acetone/tween/DMSO/water not containing the active material.
After 24 hours, the plants are contaminated by spraying the cotyledons with an aqueous suspension of Alternaria brassicae spores (50 000 spores per mL). The spores are collected from a 15-day-old culture.
The contaminated radish plants are incubated at 20° C. and at 100% relative humidity.
Grading (% of efficacy) is carried out 6 days after the contamination, in comparison with the control plants.
Under these conditions, high (at least 80%) to excellent (at least 90%) protection is observed at a dose of 500 ppm of active ingredient with the following compounds from table C1: […]

The subject of data set [4] is Pyrenophora teres. Description: In vivo preventive test on Pyrenophora teres (barley). The note with it: 500 ppm of active ingredient; barley plants, preventive spray; grading 14 days after contamination. On the procedure:
as §3
Barley plants (“Plaisant” variety), sown in starter cups on a 50/50 peat soil pozzolana substrate and grown at 22° C., are treated at the 1 leaf stage (10 cm height) by spraying with the active ingredient prepared as described above. Plants, used as controls, are treated with the mixture of acetone/tween/DMSO/water not containing the active material.
After 24 hours, the plants are contaminated by spraying the leaves with an aqueous suspension of Pyrenophora teres spores (12 000 spores per mL). The spores are collected from a 12-day-old culture.
The contaminated barley plants are incubated for 48 hours at 20° C. and at 100% relative humidity, and then for 12 days at 20° C. at 70-80% relative humidity.
Grading (% of efficacy) is carried out 14 days after the contamination, in comparison with the control plants.
Under these conditions, good (at least 70%) to total protection is observed at a dose of 500 ppm of active ingredient with the following compounds from table H1: […]

In data set [5] the test system is Puccinia recondita. Description: In vivo preventive test on Puccinia recondita (brown rust on wheat). The note with it: 500 ppm of active ingredient; wheat plants, preventive spray; grading 12 days after contamination. On the procedure:
as §3
(§4) Wheat plants (“Scipion” variety), sown in starter cups on a 50/50 peat soil pozzolana substrate and grown at 22° C., are treated at the 1 leaf stage (10 cm height) by spraying with the active ingredient prepared as described above. Plants, used as controls, are treated with the mixture of acetone/tween/DMSO/water not containing the active material.
After 24 hours, the plants are contaminated by spraying the leaves with an aqueous suspension of Puccinia recondita spores (100 000 spores per mL). The spores are collected from an infected plant and are suspended in water containing 2.5 mL/L of Tween 80 at 10%. The contaminated wheat plants are incubated for 24 hours at 20° C. and at 100% relative humidity, and then for 10 days at 20° C. and at 70-80% relative humidity.
as §2
Under these conditions, good (at least 70%) to total protection is observed at a dose of 500 ppm of active ingredient with the following compounds from table I: […]

Data set [6] concerns Septoria tritici. Description: In vivo preventive test on Septoria tritici (wheat). Conditions: 500 ppm of active ingredient; wheat plants, preventive spray; grading 24 days after contamination. How it is done:
as §3, §4
After 24 hours, the plants are contaminated by spraying the leaves with an aqueous suspension of cryopreserved Septoria tritici spores (500 000 spores per mL). The contaminated wheat plants are incubated for 72 hours at 18° C. and at 100% relative humidity, and then for 21 days at 90% relative humidity.
Grading (% of efficacy) is carried out 24 days after the contamination, in comparison with the control plants.
Under these conditions, good (at least 70%) to total protection is observed at a dose of 500 ppm of active ingredient with the following compounds from table J: […]

Data set [7] deals with Uromyces appendiculatus. The data set is described as follows: In vivo preventive test on Uromyces appendiculatus (bean rust). The note with it: 500 ppm of active ingredient; bean plants, preventive spray; grading 11 days after contamination (table K1). How it is done:
as §3
After 24 hours, the plants are contaminated by spraying the leaves with an aqueous suspension of Uromyces appendiculatus spores (150 000 spores per mL). The spores are collected from infected plants and are suspended in water containing 2.5 mL/L of Tween 80 at 10%. The contaminated bean plants are incubated for 24 hours at 20° C. and at 100% relative humidity, and then for 10 days at 20° C. and at 70-80% relative humidity.
Grading (% of efficacy) is carried out 11 days after the contamination, in comparison with the control plants.

Data set [8] has as its system Botrytis cinerea. The data set is described as follows: In vivo preventive test on Botrytis cinerea (grey mould), gherkin plants. Conditions: 500 ppm of active ingredient, preventive spray, grading 4 to 5 days after contamination. On the procedure: as §1
Gherkin plants (“Vert petit de Paris” variety), sown in starter cups on a 50/50 peat soil pozzolana substrate and grown at 24° C., are treated at the Z11 cotyledon stage by spraying with the active ingredient prepared as described above. Plants, used as controls, are treated with the mixture of acetone/tween/DMSO/water not containing the active material.
After 24 hours, the plants are contaminated by spraying the cotyledons with an aqueous suspension of cryopreserved Botrytis cinerea spores (50 000 spores per mL). The spores are suspended in a nutrient solution composed of 10 g/L of PDB, 50 g/L of D-Fructose, 2 g/L of NH4NO3 and 1 g/L of KH2PO4. The contaminated gherkin plants are incubated at 17° C. and at 90% relative humidity.
Grading (% of efficacy) is carried out 4 to 5 days after the contamination, in comparison with the control plants.
Under these conditions, good (at least 70%) to total protection is observed at a dose of 500 ppm of active ingredient with the following compounds from table F: […]

The mark [9] stands for this setting: Table C1, 500 ppm, grading 6 days after contamination.

The term logP denotes a log measure of how a compound divides between an organic and an aqueous phase. Turning to `CC1CC=C(c2ccccc2C(C)N(C(=O)c2c(C(F)F)nn(C)c2F)C2CC2)CC1` (mixture of isomers) [I.45], in data set [1], the logP is 5.03. The Efficacy is given as 100% in data set [2]; 98% in data set [3] (setting [9]); 97% in data set [4]; 81% in data set [5]; 100% in data set [6]; 75% in data set [7].
Take `CC(c1ccccc1C1=CCCCC1)N(C(=O)c1c(C(F)F)nn(C)c1F)C1CC1` (racemic) [I.32]: in data set [1], the logP was 4.61. The Efficacy in data set [2] is 100%; in data set [3] (setting [9]), 98%; in data set [3] (Table C2, dose 100 ppm, 6 days after contamination), 98%; in data set [3] (Table C2, dose 100 ppm, 6 days after contamination, listed as 1.32), “at least 95%”; in data set [3] (Table C2, dose 500 ppm, 6 days after contamination), 98%; in data set [3] (Table C2, dose 500 ppm, 6 days after contamination, listed as 1.32), “at least 95%”. For the same molecule, the results for the Efficacy in data set [4], in data set [5] and in data set [6] were 97%, 98% and 100%, respectively.
Regarding `Cn1nc(C(F)F)c(C(=O)N(Cc2c(C(F)(F)F)ccc(C3=CCCC3)c2F)C2CC2)c1F` [I.7], the logP in data set [1] is given as 4.81. Also, the Efficacy in data set [2] was 100%; in data set [3] (setting [9]), 80%; in data set [4], 86%; in data set [5] it was 81%; in data set [6], 97%; in data set [7], 98%.
As to `Cn1nc(C(F)F)c(C(=O)N(Cc2c(C3=CCCC3)ccc(F)c2F)C2CC2)c1F` [I.19], the logP in data set [1] was found to be 4.11. Besides, the Efficacy in data set [2] worked out at 100%; in data set [3] (setting [9]), 96%; in data set [4], 93%; in data set [5] it was 98%; in data set [6], 97%; in data set [7] it was 100%.
For `Cn1nc(C(F)F)c(C(=O)N(Cc2ccccc2C2=CCCCCC2)C2CC2)c1F` [I.53], in data set [1], the lipophilicity (logP) turned out to be 4.85. The Efficacy in data set [2] is listed as 100%; in data set [8] it was 100%; in data set [4], 79%; in data set [5] it was 98%; in data set [6] it was 100%; in data set [7] it was 100%.
